Columns and labels:
KRAS G12D = KRAS G12D (Homo sapiens (Human), UniProt P01116, G12D); assay: KRAS G12D LoEnz Biochemical Assay, BODIPY-GDP Exchange TR-FRET (SOS1-mediated nucleotide exchange); conditions: read-out: KRas (G12D) GDP HTRF IC50
KRAS WT = KRAS WT (Homo sapiens (Human), UniProt P01116); assay: KRAS WT Biochemical Assay, BODIPY-GDP Exchange TR-FRET (Example 502; 0.06 nM KRAS WT, 15 nM GDP, 300 nM SOS1, 120-minute incubation); conditions: read-out: KRas HTRF IC50
In short: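 Biotin-tagged recombinant KRAS WT (0.06 nM) preloaded with 15 nM GDP and Tb-streptavidin, 10 min RT, then exchange started with 300 nM SOS1 plus 300 nM BODIPY-GDP in HEPES pH 7.5 buffer with MgCl2. TR-FRET 520/490 ratio read after 120 min; normalized to DMSO and full-inhibition control; IC50 from 4-parameter fit.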

Chain of KRAS WT (P01116-2 other isoform, or with tags, fused parts or gaps): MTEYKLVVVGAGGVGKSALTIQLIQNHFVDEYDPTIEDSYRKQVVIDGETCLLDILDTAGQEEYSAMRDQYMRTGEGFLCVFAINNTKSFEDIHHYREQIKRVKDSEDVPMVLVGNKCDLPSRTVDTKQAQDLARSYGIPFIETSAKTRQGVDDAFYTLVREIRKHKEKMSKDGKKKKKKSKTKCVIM
Chain of KRAS G12D (P01116-2 other isoform, or with tags, fused parts or gaps G12D): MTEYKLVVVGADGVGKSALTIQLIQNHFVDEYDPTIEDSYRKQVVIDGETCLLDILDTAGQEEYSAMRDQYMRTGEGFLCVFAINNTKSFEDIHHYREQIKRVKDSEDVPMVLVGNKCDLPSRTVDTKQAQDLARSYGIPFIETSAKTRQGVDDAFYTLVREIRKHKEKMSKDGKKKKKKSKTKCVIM

Cc1c(F)c(N)cc(-c2nc3c4c(nc(OC[C@@]56C[C@H](F)CN5C[C@H](F)C6)nc4c2F)N2C[C@H]4CC[C@H](N4)[C@H]2[C@H](C)O3)c1C(F)(F)F [Compound 142, 5-((5S,5aS,6S,9R)-12-(((2R,6S,7as)-2,6-Difluorotetrahydro-1H-pyrrolizin-7a(5H)-yl)methoxy)-1-fluoro-5-methyl-5a,6,7,8,9,10-hexahydro-5H-4-oxa-3,10a,11,13,14-pentaaza-6,9-methanonaphtho[1,8-ab]heptalen-2-yl)-2-fluoro-3-methyl-4-(trifluoromethyl)aniline] was tested, and the IC50 (KRAS G12D) was 0.2 nM and the IC50 (KRAS WT) was 33.2 nM.

Cc1c(F)c(N)cc(-c2nc3c4c(nc(OC[C@H](F)CN5CC6(COC6)C5)nc4c2F)N2C[C@H]4CC[C@H](N4)[C@H]2[C@H](C)O3)c1C(F)(F)F [Compound 144] was tested, and the IC50 (KRAS G12D) was 0.5 nM and the IC50 (KRAS WT) was 99.5 nM.

Cc1c(F)c(N)cc(-c2nc3c4c(nc(OC[C@@H](F)CN5CC6(COC6)C5)nc4c2F)N2C[C@H]4CC[C@H](N4)[C@H]2[C@H](C)O3)c1C(F)(F)F [Compound 145] showed an IC50 (KRAS G12D) of 0.67 nM and an IC50 (KRAS WT) of 171 nM.

With Cc1c(F)c(N)cc(-c2nc3c4c(nc(OC[C@@H](F)CN5CC(CO)(CO)C5)nc4c2F)N2C[C@H]4CC[C@H](N4)[C@H]2[C@H](C)O3)c1C(F)(F)F [Compound 146] the IC50 (KRAS G12D) was 0.76 nM and the IC50 (KRAS WT) was 114 nM.

Cc1c(F)c(N)cc(-c2nc3c4c(nc(OCCC5(N6CCOCC6)COC5)nc4c2F)N2C[C@H]4CC[C@H](N4)[C@H]2[C@H](C)O3)c1C(F)(F)F [Compound 149, 2-Fluoro-5-((5S,5aS,6S,9R)-1-fluoro-5-methyl-12-(2-(3-morpholinooxetan-3-yl)ethoxy)-5a,6,7,8,9,10-hexahydro-5H-4-oxa-3,10a,11,13,14-pentaaza-6,9-methanonaphtho[1,8-ab]heptalen-2-yl)-3-methyl-4-(trifluoromethyl)aniline] was tested, and the IC50 (KRAS G12D) was 18.4 nM and the IC50 (KRAS WT) was 5450 nM.

With Cc1c(F)c(N)cc(-c2nc3c4c(nc(OCC[C@@H]5CC[C@H]6COCCN56)nc4c2F)N2C[C@H]4CC[C@H](N4)[C@H]2[C@H](C)O3)c1C(F)(F)F [Compound 154, 2-Fluoro-5-((5S,5aS,6S,9R)-1-fluoro-12-(2-((6S,8aS)-hexahydro-1H-pyrrolo[2,1-c][1,4]oxazin-6-yl)ethoxy)-5-methyl-5a,6,7,8,9,10-hexahydro-5H-4-oxa-3,10a,11,13,14-pentaaza-6,9-methanonaphtho[1,8-ab]heptalen-2-yl)-3-methyl-4-(trifluoromethyl)aniline] the IC50 (KRAS G12D) was 0.47 nM and the IC50 (KRAS WT) was 118 nM.

C[C@@H]1Oc2nc(-c3cc(N)c(F)c(F)c3C(F)(F)F)c(F)c3nc(OCC45CCN4CC(F)(F)C5)nc(c23)N2C[C@H]3CC[C@H](N3)[C@@H]12 (stereo partly drawn) [Compound 155, 5-((5S,5aS,6S,9R)-12-((3,3-difluoro-1-azabicyclo[3.2.0]heptan-5-yl)methoxy)-1-fluoro-5-methyl-5a,6,7,8,9,10-hexahydro-5H-4-oxa-3,10a,11,13,14-pentaaza-6,9-methanonaphtho[1,8-ab]heptalen-2-yl)-2,3-difluoro-4-(trifluoromethyl)aniline] showed an IC50 (KRAS G12D) of 0.22 nM and an IC50 (KRAS WT) of 31.5 nM.

With C[C@@H]1Oc2nc(-c3cc(N)cc(F)c3C(F)(F)F)c(F)c3nc(OCC4CCC5N4CCOC5(C)C)nc(c23)N2C[C@H]3CC[C@H](N3)[C@@H]12 (stereo partly drawn) [Compound 157, 3-((5S,5aS,6S,9R)-12-((1,1-Dimethylhexahydro-1H-pyrrolo[2,1-c][1,4]oxazin-6-yl)methoxy)-1-fluoro-5-methyl-5a,6,7,8,9,10-hexahydro-5H-4-oxa-3,10a,11,13,14-pentaaza-6,9-methanonaphtho[1,8-ab]heptalen-2-yl)-5-fluoro-4-(trifluoromethyl)aniline] the IC50 (KRAS G12D) was 0.55 nM and the IC50 (KRAS WT) was 45.6 nM.

With Cc1c(F)c(N)cc(-c2nc3c4c(nc(OC[C@H]5[C@H](C#N)CCN5C)nc4c2F)N2C[C@H]4CC[C@H](N4)[C@H]2[C@H](C)O3)c1C(F)(F)F [Compound 161, (2R,3R)-2-((((5S,5aS,6S,9R)-2-(5-Amino-4° fluoro-3-methyl-2-(trifluoromethylo)henyl)-1-fluoro-5-methyl-5a,6,7,8,9,10-hexahydro-5H-4-oxa-3,10a,11,13,14-pentaaza-6,9-methanonaphtho[1,8-ab]heptalen-12-yl)oxy)methyl)-1-methylpyrrolidine-3-carbonitrile] the IC50 (KRAS G12D) was 7.61 nM and the IC50 (KRAS WT) was 1330 nM.

In the case of Cc1c(F)c(N)cc(-c2nc3c4c(nc(OC[C@H]5[C@@H](O)CCN5C)nc4c2F)N2C[C@H]4CC[C@H](N4)[C@H]2[C@H](C)O3)c1C(F)(F)F [Compound 162, (2S,3S)-2-((((5S,5aS,6S,9R)-2-(5-Amino-4-fluoro-3-methyl-2-(trifluoromethyl)phenyl)-1-fluoro-5-methyl-5a,6,7,8,9,10-hexahydro-5H-4-oxa-3,10a,11,13,14-pentaaza-6,9-methanonaphtho[1,8-ab]heptalen-12-yl)oxy)methyl)-1-methylpyrrolidin-3-ol], the IC50 (KRAS G12D) is reported as 0.13 nM and the IC50 (KRAS WT) is reported as 41.3 nM.

Work on Cc1c(F)c(N)cc(-c2nc3c4c(nc(OCCCN5C[C@H]6C[C@@H]5CO6)nc4c2F)N2C[C@H]4CC[C@H](N4)[C@H]2[C@H](C)O3)c1C(F)(F)F [Compound 163, 5-((5S,5aS,6S,9R)-12-(3-((1R,4R)-2-Oxa-5-azabicyclo[2.2.1]heptan-5-yl)propoxy)-1-fluoro-5-methyl-5a,6,7,8,9,10-hexahydro-5H-4-oxa-3,10a,11,13,14-pentaaza-6,9-methanonaphtho[1,8-ab]heptalen-2-yl)-2-fluoro-3-methyl-4-(trifluoromethyl)aniline] yielded an IC50 (KRAS G12D) of 0.11 nM and an IC50 (KRAS WT) of 19.6 nM.

Cc1c(F)c(N)cc(-c2nc3c4c(nc(OCCCN5C[C@@H]6C[C@H]5CO6)nc4c2F)N2C[C@H]4CC[C@H](N4)[C@H]2[C@H](C)O3)c1C(F)(F)F [Compound 164, 5-((5S,5aS,6S,9R)-12-(3-((1S,4S)-2-oxa-5-azabicyclo[2.2.1]heptan-5-yl)propoxy)-1-fluoro-5-methyl-5a,6,7,8,9,10-hexahydro-5H-4-oxa-3,10a,11,13,14-pentaaza-6,9-methanonaphtho[1,8-ab]heptalen-2-yl)-2-fluoro-3-methyl-4-(trifluoromethyl)aniline] showed an IC50 (KRAS G12D) of 0.15 nM and an IC50 (KRAS WT) of 30.6 nM.

Work on Cc1c(F)c(N)cc(-c2nc3c4c(nc(OCC5(CN6CCO[C@H](C)C6)CC5)nc4c2F)N2C[C@H]4CC[C@H](N4)[C@H]2[C@H](C)O3)c1C(F)(F)F [Compound 168, 2-Fluoro-5-((5S,5aS,6S,9R)-1-fluoro-5-methyl-12-((1-(((R)-2-methylmorpholino)methyl)cyclopropyl)methoxy)-5a,6,7,8,9,10-hexahydro-5H-4-oxa-3,10a,11,13,14-pentaaza-6,9-methanonaphtho[1,8-ab]heptalen-2-yl)-3-methyl-4-(trifluoromethyl)aniline] yielded an IC50 (KRAS G12D) of 0.12 nM and an IC50 (KRAS WT) of 1.68 nM.

Work on Cc1c(F)c(N)cc(-c2nc3c4c(nc(OCC5(CN6C[C@@H]7C[C@H]6CO7)CC5)nc4c2F)N2C[C@H]4CC[C@H](N4)[C@H]2[C@H](C)O3)c1C(F)(F)F [Compound 169, 5-((5S,5aS,6S,9R)-12-((1-(((1S,4S)-2-Oxa-5-azabicyclo[2.2.1]heptan-5-yl)methyl)cyclopropyl)methoxy)-1-fluoro-5-methyl-5a,6,7,8,9,10-hexahydro-5H-4-oxa-3,10a,11,13,14-pentaaza-6,9-methanonaphtho[1,8-ab]heptalene-2-yl)-2-fluoro-3-methyl-4-(trifluoromethyl)aniline] yielded an IC50 (KRAS G12D) of 0.1 nM and an IC50 (KRAS WT) of 2.31 nM.
